Experimental data published in ChEMBL document CHEMBL1122438, “2-Phenylpyrazolo[1,5-a]pyrimidin-7-ones. A new class of nonsteroidal antiinflammatory drugs devoid of ulcerogenic activity” (J Med Chem, 1983).
The source made the active and inactive calls. The calls are words filed in the database; no cut-off is given here.

How the values were obtained:
[1] = test system: Rattus norvegicus; experiment: Percent reduction of edema in rat on 23rd day after oral administration of 30 mg/kg in antiarthritis assay; i = Inactive; format: functional, organism-based; parameters: dose 30 mg/kg; details: at 30 mg/kg
[2] = test system: Mus musculus; experiment: Percent reduction of edema in mice 3h after oral administration of 30 mg/kg in carrageenan model; format: functional
[3] = test system: Mus musculus; experiment: Percent reduction of edema in mice 3h after oral administration of 20 mg/kg in carrageenan model; format: functional
[4] = test system: Rattus norvegicus; experiment: Percent reduction of edema in rat on 23rd day after oral administration of 20 mg/kg in antiarthritis assay; i = Inactive; format: functional, organism-based; parameters: dose 20 mg/kg; details: at 20 mg/kg
[5] = test system: Rattus norvegicus; experiment: Analgesic activity evaluated by measuring % analgesic effect, after oral administration of 120 mg/kg in acetic acid writhing test; format: functional
[6] = test system: Rattus norvegicus; experiment: Antiinflammatory activity evaluated by measuring % reduction of edema, 3h after oral administration of 5 mg/kg in carrageenan model; format: functional
[7] = species on record: Mus musculus; experiment: (§1) Analgesic activity in acetic acid writhing test, activity is expressed as ED50 values; format: functional
[8] = test system: Rattus norvegicus; experiment: Antiinflammatory activity evaluated by measuring % reduction of edema, 3h after oral administration of 1 mg/kg in carrageenan model; format: functional
[9] = test system: Rattus norvegicus; experiment: Ulcer index at 50 mg/kg concentration; format: functional
[10] = test system: Rattus norvegicus; experiment: Median ulcerogenic dose was determined at 30 mg/kg dose; format: functional
[11] = test system: Rattus norvegicus; experiment: Ulcer index at 30 mg/kg concentration; format: functional
[12] = test system: Mus musculus; experiment: Acute toxicity was evaluated as number of mice died (tested = 7) after 72nd hour when 12 mg/kg is administered intraperitoneally; format: organism-based; parameters: dose 12 mg/kg, route intraperitoneal; details: in vivo, ip
[13] = Therapeutic index was expressed as LD50/ED50 carragreenin model; details: mouse; read-out: TI
[14] = test system: Rattus norvegicus; experiment: Percent reduction of edema in rat on 23rd day after oral administration of 3 mg/kg in antiarthritis assay; format: functional
[15] = test system: Rattus norvegicus; experiment: Ulcer index at 5 mg/kg concentration; format: functional
[16] = test system: Mus musculus; experiment: Percent reduction of edema in mice 3h after oral administration of 3 mg/kg in carrageenan model; format: functional
[17] = test system: Mus musculus; experiment: Acute toxicity was evaluated as number of mice died (tested = 7) after 72nd hour when 75 mg/kg is administered intraperitoneally; format: organism-based; parameters: dose 75 mg/kg, route intraperitoneal; details: in vivo, ip
[18] = test system: Mus musculus; experiment: Acute toxicity was evaluated as number of mice died (tested = 7) after 72nd hour when 15 mg/kg is administered intraperitoneally; format: organism-based; parameters: dose 15 mg/kg, route intraperitoneal; details: in vivo, ip
[19] = test system: Mus musculus; experiment: Acute toxicity was evaluated as number of mice died (tested = 7) after 72nd hour when 8 mg/kg is administered intraperitoneally; format: organism-based; parameters: dose 8 mg/kg, route intraperitoneal; details: in vivo, ip
[20] = test system: Rattus norvegicus; experiment: Analgesic activity evaluated by measuring % analgesic effect, after oral administration of 3.0 mg/kg in acetic acid writhing test; format: functional
[21] = species on record: Rattus norvegicus; experiment: Antiinflammatory activity in carrageenan model, activity is expressed as ED50 values; format: functional
[22] = Toxic activity is expressed as LD50 values; format: toxicity, organism-based; details: mouse, in vivo
[23] = test system: Rattus norvegicus; experiment: Analgesic activity evaluated by measuring % analgesic effect, after oral administration of 1.0 mg/kg in acetic acid writhing test; format: functional
[24] = test system: Rattus norvegicus; experiment: Percent reduction of edema in rat on 23rd day after oral administration of 20 mg/kg in antiarthritis assay; format: functional
[25] = species on record: Rattus norvegicus; experiment: as §1; format: functional
[26] = test system: Rattus norvegicus; experiment: Antiinflammatory activity evaluated by measuring % reduction of edema, 3h after oral administration of 20 mg/kg in carrageenan model; format: functional
[27] = test system: Rattus norvegicus; experiment: Antiinflammatory activity evaluated by measuring % reduction of edema, 3h after oral administration of 30 mg/kg in carrageenan model; format: functional
[28] = test system: Rattus norvegicus; experiment: Antiinflammatory activity evaluated by measuring % reduction of edema, 3h after oral administration of 50 mg/kg in carrageenan model; format: functional
[29] = test system: Rattus norvegicus; experiment: Percent reduction of edema in rat on 23rd day after oral administration of 30 mg/kg in antiarthritis assay; format: functional
[30] = species on record: Rattus norvegicus; experiment: Median ulcerogenic dose was determined; format: functional
[31] = test system: Mus musculus; experiment: Analgesic activity evaluated by measuring % analgesic effect, after oral administration of 500 mg/kg in acetic acid writhing test; format: functional
[32] = test system: Mus musculus; experiment: Acute toxicity was evaluated as number of mice (tested=7) died after 72nd hour when 300 mg/kg is administered intraperitoneally; format: organism-based; parameters: dose 300 mg/kg, route intraperitoneal; details: in vivo, ip
[33] = test system: Mus musculus; experiment: Acute toxicity was evaluated as number of mice (tested=7) died after 72nd hour when 350 mg/kg is administered intraperitoneally; format: organism-based; parameters: dose 350 mg/kg, route intraperitoneal; details: in vivo, ip
[34] = test system: Rattus norvegicus; experiment: Ulcer index at 200 mg/kg concentration; format: functional
[35] = test system: Mus musculus; experiment: Acute toxicity was evaluated as number of mice (tested=7) died after 72nd hour when 225 mg/kg is administered intraperitoneally; format: organism-based; parameters: dose 225 mg/kg, route intraperitoneal; details: in vivo, ip
[36] = test system: Mus musculus; experiment: Analgesic activity evaluated by measuring % analgesic effect, after oral administration of 300 mg/kg in acetic acid writhing test; format: functional
[37] = test system: Rattus norvegicus; experiment: Antiinflammatory activity evaluated by measuring % reduction of edema, 3h after oral administration of 25 mg/kg in carrageenan model; format: functional
[38] = test system: Rattus norvegicus; experiment: Ulcer index at 100 mg/kg concentration; format: functional
[39] = test system: Rattus norvegicus; experiment: Antiinflammatory activity evaluated by measuring % reduction of edema, 3h after oral administration of 10 mg/kg in carrageenan model; format: functional
[40] = test system: Mus musculus; experiment: Acute toxicity was evaluated as number of mice (tested=7) died after 72nd hour when 170 mg/kg is administered intraperitoneally; format: organism-based; parameters: dose 170 mg/kg, route intraperitoneal; details: in vivo, ip

In the case of `CCOC(=O)/C=C/n1ccc(=O)n2nc(-c3ccccc3)cc12`, the Reduction [1] is reported as “inactive” and the Reduction [2] is reported as 23.4%.

In the case of `CC(C)n1ccc(=O)n2nc(-c3ccccc3)cc12`, the Reduction [3] is reported as 3.5% and the Reduction [4] is reported as “inactive”.

In the case of `CCn1ccc(=O)n2nc(-c3ccccc3)c(SC#N)c12`, the Reduction [1] is reported as “inactive” and the Reduction [2] is reported as 42.2%.

Work on `COc1ccc2c(c1)c(CC(=O)O)c(C)n2C(=O)c1ccc(Cl)cc1` [INDOMETHACIN] yielded an Analgesic effect [5] of 28.4%, a Reduction [6] of 69.2% and an ED50 [7] of 2.5 mg/kg. For the same compound, the Reduction [8] was 36.7%, the UI [9] was 3.3 and the UD50 [10] was 12.1 mg/kg. It also gave a UI [11] of 2.36, an Acute toxicity [12] of 2 and a selectivity ratio [13] of 10.9. For the same compound, the Reduction [14] was 39%, the UI [15] was 1.4 and the Reduction [16] was 62.4%. It also gave an Acute toxicity [17] of 7, an Acute toxicity [18] of 3 and an Acute toxicity [19] of 1. The Analgesic effect [20] was 57%, the ED50 [21] was 1.83 mg/kg and the LD50 [22] was 19.9 mg/kg. The Analgesic effect [23] was 28%.

In the case of `CCn1ccc(=O)n2nc(C)cc12`, the Reduction [1] is reported as “inactive” and the Reduction [2] is reported as 7.3%.

With `CCn1ccc(=O)n2nc(-c3ccccc3)c(Br)c12` the Reduction [1] was “inactive” and the Reduction [2] was 40.5%.

For `CCCCn1ccc(=O)n2nc(-c3ccccc3)cc12`, the Reduction [3] was 26.6% and the Reduction [24] was 59.8%.

With `CCn1ccc(=O)n2nc(-c3ccccc3)c(N=O)c12` the Reduction [1] was “inactive” and the Reduction [2] was 7.03%.

With `CCn1ccc(=O)n2nc(-c3ccccc3)c(SSc3c(-c4ccccc4)nn4c(=O)ccn(CC)c34)c12` the Reduction [1] was “inactive” and the Reduction [2] was 37.5%.

With `O=c1ccn(CCO)c2cc(-c3ccccc3)nn12` the Reduction [1] was “inactive” and the Reduction [2] was 16.5%.

Work on `CCCn1ccc(=O)n2nc(-c3ccccc3)cc12` yielded an ED50 [25] of 29.8 mg/kg, a Reduction [2] of 52.1% and a Reduction [26] of 31.9%. It also gave a Reduction [27] of 52%, a Reduction [28] of 70.8% and a Reduction [29] of 33%.

Compound `CCCCC1C(=O)N(c2ccccc2)N(c2ccccc2)C1=O` [PHENYLBUTAZONE] has a UD50 [30] of 72.4 mg/kg, a Reduction [3] of 52.9% and an Analgesic effect [31] of 73%. For the same compound, the ED50 [25] was 274 mg/kg, the Acute toxicity [32] was 4 and the Acute toxicity [33] was 7. It also gave a UI [34] of 3.2, a UI [9] of 1.35 and an Acute toxicity [35] of 2. It also gave an Analgesic effect [36] of 57.7%, a Reduction [37] of 52.9% and a selectivity ratio [13] of 18.2. It also gave a UI [38] of 2.55, a Reduction [28] of 62.9% and a Reduction [39] of 48.7%. It also gave an ED50 [21] of 13.1 mg/kg, an LD50 [22] of 238 mg/kg and a Reduction [24] of 20.7%. The Acute toxicity [40] was 0.
